# In patent US7868204B2, “Inhibitors of histone deacetylase” (MethylGene Inc., priority 2001, dated 2011):
# Read-outs that look alike come from different tables or passages of the source.
# How the values were obtained:
# [1] = target: T1, cloned recombinant human HDAC-1 (Homo sapiens, UniProt Q13547); assay: Human HDAC-1 enzyme inhibition, Assay 1 ([3H]-acetylated histone substrate, scintillation counting); assay type: biochemical
# T1 construct: made in house; host or cells: Baculovirus insect cell expression system
# T1 sequence (Q13547 whole entry): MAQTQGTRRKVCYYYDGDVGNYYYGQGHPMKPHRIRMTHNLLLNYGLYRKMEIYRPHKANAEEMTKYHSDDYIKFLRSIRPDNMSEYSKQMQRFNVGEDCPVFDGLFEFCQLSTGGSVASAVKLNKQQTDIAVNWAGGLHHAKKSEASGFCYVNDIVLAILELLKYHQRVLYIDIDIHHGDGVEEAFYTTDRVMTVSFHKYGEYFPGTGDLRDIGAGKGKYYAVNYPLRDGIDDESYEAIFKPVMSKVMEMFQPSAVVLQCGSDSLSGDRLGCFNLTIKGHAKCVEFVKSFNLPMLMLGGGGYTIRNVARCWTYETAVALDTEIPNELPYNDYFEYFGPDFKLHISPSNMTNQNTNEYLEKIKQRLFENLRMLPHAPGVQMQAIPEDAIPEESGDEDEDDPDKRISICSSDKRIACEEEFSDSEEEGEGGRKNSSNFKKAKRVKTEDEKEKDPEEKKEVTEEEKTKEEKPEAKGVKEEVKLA
# In short: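 Recombinant human HDAC-1 from baculovirus-infected insect cells, preincubated with compound 30 min at 4° C. before reaction. Released [3H]-acetic acid extracted with ethyl acetate and counted by scintillation. IC50 taken from dose-response curves as concentration giving half-maximal inhibition.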
# [2] = system: acetylated histone H-4 in T24 human bladder cancer cells; assay: Histone H4 acetylation in whole cells by immunoblots; assay type: cell-based; conditions: 16 h
# Description: T24 human bladder cancer cells growing in culture were incubated with HDAC inhibitors for 16 h. […] of total histone protein was loaded onto SDS/PAGE and transferred to nitrocellulose membranes. Membranes were probed with polyclonal antibodies specific for acetylated histone H-4 (Upstate Biotech Inc.), followed by horse radish peroxidase conjugated secondary antibodies (Sigma). Enhanced Chemiluminescence (ECL) (Amersham) detection was performed using Kodak films (Eastman Kodak). Acetylated H-4 signal was quantified by densitometry.
# HCT116 cells = assay: MTT assay; assay type: cell-based; conditions: Homo sapiens, HCT116 cells, 72 hours
# In short: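 Cells plated one day before dosing, then exposed to compound 72 h at 37 °C, 5% CO2. MTT at 0.5 mg/ml final for 4 h, solubilized in DMF/SDS buffer pH 4.7; OD converted to cell number from a standard growth curve.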
# [3] = Table 5F, read-out: Human HDAC-1 IC50
# [4] = T-24, Table 5F, read-out: H4 Ac (T24) EC50
# [5] = Table 5a, read-out: Human HDAC-1 IC50
# [6] = T-24, Table 5a, read-out: H4Ac (T24) EC50
SMILES,"IC50 [1, 3]","EC50 [2, 4]","IC50 (HCT116 cells; HCT-116, 72 h, Table 5F)",further results
"Nc1ccccc1NC(=O)c1ccc(CNc2nc(Cl)cc(N3CCOCC3)n2)cc1 [Cpd 411, N-(2-Amino-phenyl)-4-[(4-chloro-6-morpholin-4-yl-pyrimidin-2-ylamino)-methyl]-benzamide]",2 µM,1 µM,,
CCC1(C)CC(=O)N(Cc2ccc(C(=O)Nc3ccccc3N)cc2)C(=O)C1 [Cpd 180],3 µM,5 µM,2 µM,
"CC(=O)c1cc2c(cc1NCc1ccc(C(=O)Nc3ccccc3N)cc1)OCO2 [Cpd 386, 4-[(6-Acetyl-benzo[1,3]dioxol-5-ylamino)-methyl]-N-(2-amino-phenyl)-benzamide]",3 µM,1 µM,1 µM,
"Nc1ccccc1NC(=O)c1ccc(CN2C(=O)c3ccccc3C2=O)cc1 [Cpd 149, N-(2-Amino-phenyl)-4-(1,3-dioxo-1,3-dihydro-isoindol-2-ylmethyl)-benzamide]",,,,"IC50 ([1]; Table 5E, read-out: Human HDAC-1 IC50): 1 µM; IC50 (HCT116 cells; HCT-116, 72 h, Table 5E): 5 µM; EC50 ([2]; T-24, Table 5E, read-out: H4 Ac (T24) EC50): 5 µM"
Nc1ccccc1NC(=O)c1ccc(-c2cccc(CNC3Cc4ccccc4C3)c2)cc1 [Cpd 186],2 µM,2 µM,2 µM,
"Nc1nc(NCc2ccc(C(=O)Nc3ccccc3N)cc2)nc(N2CCc3ccccc32)n1 [Cpd 22, 4-{[4-Amino-6-(2,3-dihydro-indol-1-yl)-[1,3,5]triazin-2-ylamino]-methyl}-N-(2-amino-phenyl)-benzamide]",,,,"IC50 [1, 5]: 3 µM; IC50 (HCT116 cells; HCT-116, 72 h, Table 5a): 0.8 µM; EC50 [2, 6]: 1 µM"
Nc1ccccc1NC(=O)c1ccc(Cn2cnc3ccsc3c2=O)cc1 [Cpd 257],0.4 µM,1 µM,0.4 µM,
COc1cc(NCc2ccc(/C=C/C(=O)Nc3cscc3N)cc2)cc(OC)c1OC [Cpd 570],,,,"IC50 ([1]; Table 5d, read-out: HDAC-1 IC50): 6 µM; IC50 (HCT116 cells; HCT-116, Table 5d): 0.6 µM; EC50 ([2]; T-24, Table 5d, read-out: H4Ac(T24) EC50): 2 µM"
"CCCCn1cnc2c(NCc3ccc(C(=O)Nc4ccccc4N)cc3)nc(N)nc21 [Cpd 330, 4-[(2-Amino-9-butyl-9H-purin-6-ylamino)-methyl]-N-(2-amino-phenyl)-benzamide]",3 µM,1 µM,2 µM,
"Nc1ccccc1NC(=O)c1ccc(NCCNc2ccccc2)nc1 [Cpd 460, N-(2-Amino-phenyl)-6-(2-phenylamino-ethylamino)-nicotinamide]",3 µM,1 µM,1 µM,
"COc1cc(NCc2ccc(C(=O)Nc3ccccc3N)cc2)cc(OC)c1 [Cpd 397, N-(2-Amino-phenyl)-4-[(3,5-dimethoxy-phenylamino)-methyl]-benzamide]",1 µM,4 µM,0.6 µM,
"Nc1ccccc1NC(=O)c1ccc(CNc2cc(-c3ccccc3)[nH]n2)cc1 [Cpd 468, N-(2-Amino-phenyl)-4-[(5-phenyl-1H-pyrazol-3-ylamino)-methyl]-benzamide]",2 µM,< 1 µM,8 µM,
"Cc1ccc(C#N)c(OCc2ccc(C(=O)Nc3ccccc3N)cc2)n1 [Cpd 577, N-(2-Amino-phenyl)-4-(3-cyano-6-methyl-pyridin-2-yloxymethyl)-benzamide]",2 µM,2 µM,0.5 µM,
"Nc1ccccc1NC(=O)c1ccc(CSc2nc3ccc(NCc4ccccn4)cc3s2)cc1 [Cpd 326, N-(2-Amino-phenyl)-4-{6-[(pyridin-2-ylmethyl)-amino]-benzothiazol-2-ylsulfanylmethyl}-benzamide]",1 µM,3 µM,1 µM,
"COc1cc(CNc2ccc3oc(C(=O)Nc4ccccc4N)cc3c2)cc(OC)c1OC [Cpd 592, 5-(3,4,5-Trimethoxy-benzylamino)-benzofuran-2-carboxylic acid (2-amino-phenyl)-amide]",5 µM,< 1 µM,0.4 µM,
Nc1ccccc1NC(=O)c1ccc(CNc2nc(F)c(F)cc2F)cc1 [Cpd 350],2 µM,5 µM,1 µM,
"Nc1nc(NCc2ccc(C(=O)Nc3ccccc3N)cc2)nc(NC2c3ccccc3-c3ccccc32)n1 [Cpd 14, 4-{[4-Amino-6-(9H-fluoren-9-ylamino)-[1,3,5]triazin-2-ylamino]-methyl)-N-(2-amino-phenyl)-benzamide]",,,,"IC50 [1, 5]: 0.3 µM; IC50 (HCT116 cells; HCT-116, 72 h, Table 5a): 1 µM; EC50 [2, 6]: 5 µM"
COc1cc(Cl)cc(NCc2ccc(C(=O)Nc3ccccc3N)cc2)n1 [Cpd 387],2 µM,1 µM,1 µM,
